We go through 1 compound from patent publication US20260137671A1, “PDK4 as a Cell-Aging Intervention Target and Its Use in Chemotherapy and Anticancer” (Shanghai Institute of Nutrition and Health, Chinese Academy …, priority 2022, published 2026).

Each structure is given as a SMILES string.

Data set [1] relates to mice implanted with recombinant tissues. The data set is described as follows: Survival of tumor-bearing mice in time-extended preclinical cohort (bulky disease, size >2,000 mm^3). The class given is in vivo. As to conditions: PDK4-IN treatment alone versus vehicle. An excerpt:
FIG. 74. Curve of bulky DFS plotted against survival time of implantation with recombinant tissues in mice until animal death attributed to advanced bulky disease development. MS, median survival. P values calculated by two-sided log-rank (Mantel-Cox) tests.
Next, the inventors assessed tumor progression consequence by comparing the survival rate of different animal groups in a time-extended preclinical cohort. During tumor surveillance, bulky disease was considered once the tumor burden became prominent (size >2,000 mm^3).

Data set [2] has as its system mice aged 24 to 27 months. The data set is described as follows: Lifespan appraisal of late-life mice. The class given is in vivo, C57BL/6 mice. As to conditions: PDK4-IN every two weeks, P<0.001 vs Vehicle. Here is the method: FIG. 91. Schematic design for lifespan appraisal of mice. Mice aged 24 to 27 months were administered either Vehicle or PDK4-IN every two weeks, with continuous monitoring of their survival and recording of maximum lifespan.
C57BL/6 mice aged 24 to 27 months were administered either Vehicle or PDK4-IN every two weeks intraperitoneally. The median survival of animals in each group was calculated and indicated. ***, P<0.001.
The earliest deaths occurred approximately 2 months after the last physical function test. C57BL/6 mice aged 19 to 21 months were housed at 3-5 animals per cage. Same as the transplanted mice, the mice were sorted by body weight and randomly assigned to each group, and treated in either control (vehicle) or drug (PDK4) group by persons blinded to the design of the preclinical trial. From the age of 24-27 months, the mice were treated with vehicle or PDK4-IN every 2 weeks, […] for 3 consecutive days at each time. During the course of the study, some mice were removed from their original cages in order to minimize the animal housing stress caused by long-term housing in a single cage. RotaRod and hanging tests were performed monthly because these tests were sensitive and noninvasive. […] During the experiment, no mice were excluded due to fighting, accidental death or dermatitis. For biostatistics, a Cox proportional hazard model was used for survival analysis. […]

The test system of data set [3] is mice with natural senescence. Description: PDK4-IN intervention in naturally aged mice: tissue senescence, physical function, serum markers. The class given is in vivo, C57BL/6J mice. How it is done:
FIG. 83. Schematic design of 20-month-old C57BL/6J mice undergoing either placebo or PDK4-IN intervention.
All testing began on day 5 after the last placebo or drug treatment. Maximum walking speed was assessed using the accelerated RotaRod System (TSE System, Chesterfiled, MO). The mice were trained on the RotaRod for 3 days at speeds of 4, 6 and 8 r.p.m, lasted for 200 seconds on the 1st, 2nd and 3rd days. On the test day, the mice were placed on the RotaRod, and the test was performed starting at a speed of 4 r.p.m. The rotation speed was accelerated from 4 to 40 r.p.m at intervals of 5 minutes. When the mice fell off the RotaRod, the speed was recorded. The final results were averaged from 3 or 4 trials and normalized to baseline speed. The mice that had been trained within the previous two months were no longer trained.
Forelimb grip strength (N) was measured using a Grip Strength Meter (Columbus Instruments, Columbus, OH), and the results were averaged from more than 10 trials. For the hanging endurance test, the mice were placed on a 2 mm thick metal wire, while the later was 35 cm above a mat. The mice were only allowed to grasp the wire with their forelimbs, and the hang time was normalized to body weight and expressed as hang duration (sec)×body weight (g). The results were the average of 2 to 3 trials per mouse. Their daily activity and food intake were monitored for 24 h (12 hours of light and 12 hours of dark) by a Comprehensive Laboratory Animal Monitoring System (CLAMS). The CLAMS system was equipped with an Oxymax Open Circuit Calorimeter System (Columbus Instruments). For treadmill performance, the mice were acclimatized to run on an electric running machine (Columbus Instruments) at a 5° incline, for 3 days of training, lasted for 5 minutes each day, started at a speed of 5 m/min for 2 minutes, then accelerated to 7 m/min for 2 minutes, then 9 m/min for 1 minute. On the day of the test, the mice ran on the treadmill at an initial speed of 5 m/min for 2 min, and then the speed increased by 2 m/min every 2 min until the mice were exhausted. Fatigue was defined as the inability of mice to return to the treadmill despite mild electrical and mechanical stimulation. The distance was recorded after the test, and the total work (KJ) was calculated with the following formula: mass (kg)×g (9.8 m/s2)×distance (m)×sin (5°).
With the increasing global senescent trend in recent years, drugs that can effectively alleviate the senescent process have become a common interest among scientists and pharmaceutical companies worldwide. The inventors queried whether manipulation of PDK4 activities can control various senescence-associated phenotypes. Therefore, the inventors chose to treat normal 20-month-old wild-type mice with PDK4-IN (PDK4-IN 10 mg/kg via intraperitoneal injection once every 2 weeks) for 4 months, after which physical function or physical ability was experimentally determined in mice with natural senescence (FIG. 83).

In data set [4] the test system is senescent human stromal cells (PSC27). Description: Seahorse XF24 metabolic profiling of senescent stromal cells. In kind it is cell-based. The arrangement: ATP production / basal respiration / maximal respiration: dose or concentration left out as unconfirmed. How it is done: FIG. 26. OCR of stromal cells was measured using an XF24 Extracellular Flux Analyzer. In simple, 1.5 μM oligomycin, 0.5 μM FCCP and 0.5 μM Rot/Ant were injected sequentially in order into each well. The glycolysis rate was calculated as the difference between the maximum rate measured before injection and the last rate measured before glucose injection. All Seahorse data were normalized to cell numbers, with all metabolic parameters automatically calculated by WAVE software equipped in the Seahorse. OCR, oxygen consumption rate. Oligo, oligomycin. FCCP, carbonyl cyanide 4-(trifluoromethoxy) phenylhydrazone. Rot, rotenone. Ant, antimycin. […]
After 6 hours of drug treatment, the cells were simply washed 3 times with PBS, left in the culture medium for 7-˜10 days, and then the subsequent experiments were performed.
Next, the inventors measured the levels of extracellular fluids. […] Among them, HK2 and LDHA are glycolysis-related factors, whereas IDH2, IDH3, OGDH and CS are TCA cycle-involving enzymes. As overexpression of PDK4 per se in normal cells neither caused or abrogated senescence, nor affected the SASP (FIG. 38), the inventors reasoned that senescent cell metabolism was correlated with and likely underpinned by expression of key factors involved in glucose consumption and linked with production of pyruvate, lactate and multiple other metabolites.

Where [5] appears, read: 20-month-old mice, PDK4-IN 10 mg/kg i.p. once every 2 weeks for 4 months.
[6] abbreviates: senescence-associated change, PDK4-IN treated.

With `O=C1c2ccccc2C(=O)c2c1cccc2-c1cnn(C2CCNCC2)c1` [PDK4-IN], in data set [1], the “survival benefit as single agent” value is “only marginal survival advantage”. Moreover, the “lifespan during the intervention period” value in data set [2] is reported as “significantly extended the lifespan”. In data set [3] (setting [5]), the “SA-β-gal positivity in liver, lung, prostate and myocardial tissues of aged animals” value was “partially reversed”; the “age-dependent expansion of alveoli” value is listed as “effectively controlled”; the grip strength result is given as “significantly improved”; the motor skills entry is “significantly improved”. Moreover, the serum lactate levels entry in data set [3] (aged animals receiving PDK4-IN treatment) is recorded as “significant reduction”. For the same compound, in data set [3] (aged mice treated with PDK4-IN), the “age-related elevation of serum alanine aminotransferase (ALT)” value is recorded as “significantly avoided these changes”, the “age-related elevation of serum aspartate aminotransferase (AST)” value was “significantly avoided these changes”, the “age-related elevation of serum lactate dehydrogenase (LDH)” value is “significantly avoided these changes” and the body weight result is reported as “essentially unaffected”. Also, in data set [3] (aged mice treated with PDK4-IN), the food intake result is “essentially unaffected”. In data set [4] (setting [6]), the “H^+ (proton) leak” value is recorded as “reversed changes”, the lactate production result was “reversed changes”, the non-mitochondrial oxygen consumption entry is “reversed changes” and the pH fluctuation result is recorded as “reversed changes”. Further, in data set [4] (senescent cells, PDK4-IN-1), the ATP production entry was “further promoted”, the basal respiration entry is given as “further promoted” and the maximal respiration result is recorded as “further promoted”.
